According to patent US20200281897A1, “INDAZOLE DERIVATIVES FOR CANCER TREATMENT” (Servicio Andaluz de Salud, priority 2016, published 2020):
Read-outs that look alike come from different tables or passages of the source. Residues, ends and D or L forms follow the SMILES beside them. *: point of attachment. Cbz = O=C(OCc1ccccc1)*; CH2F = FC*

Legend:
Type in all cases: cell-based, human
U266 and RPMI cell lines = assay: Pretreatment with antagonists/inhibitors before WIN-55, MTT viability; conditions: for effect of preincubation with CB2 antagonist on pro-apoptotic effect induced by WIN-55: 30 minutes pretreatment, then WIN-55 up to 18 hours; for effect of inhibitor on WIN-55-induced apoptosis / loss of viability: WIN-55 at suboptimal concentrations, 18 hours
Method: (§1) The MM cell lines and primary cells were exposed to different doses of indazole compounds, and viability was evaluated at 18, 48, and 72 hours. Pretreatments with the ceramide synthesis inhibitor (FB1), pan-caspase (ZVAD-FMK), and CB antagonists (PGN-8, PGN-37, and PGN-70) were performed for 30 minutes, and then the cells were incubated with indazole compound WIN-55 up to 18 hours. Cell viability was determined using the MTT assay Cell Counting Kit-8 (Dojindo, Kumamoto, Japan) according to the manufacturer's instructions.

HL60 and KG-1a = assay: Antagonists/inhibitors together with WIN-55,212-2, WST-1 viability in AML cells; conditions: WIN-55,212-2 10 μM, 18 hours; for effect of CB2 antagonist on cannabinoid-induced apoptosis: HL60 and KG1-a; for effect of inhibitor on cannabinoid-induced loss of viability: WST-1
Method: The cell lines and primary cells were cultured in 96-well plates (5×10e5 cells per well) with the addition of the indicated concentrations of WIN 55,212-2 or PGN cannabinoids in DMSO or with the solvent only in triplicate at 18, 48, and 72 hours. Caspase inhibitor Z-VAD (OMe)-FMK or the CB2 receptor antagonist PGN-8, -37, and -70, together with the cannabinoid WIN-55,212-2, were also added. Cell viability was determined by means of the WST-1 assay [2-(4-iodophenyl)-3-(4-nitrophenyl)-5-(2,4-disulfophenyl)-2H-tetrazolium] according to the manufacturer's instructions (Dojindo Molecular Technologies). Optical densities were measured at 450 nm using a Multiskan™ Go Microplate plate reader (Thermo Fisher Scientific, Waltham, Mass., USA).

HL60 = assay: Western blot and immunocytofluorescence in HL60 cells; conditions: HL60, WIN-55,212-2 10 μM
Text: The detailed methodology for analyzing mitochondrial membrane potential (APm), Western Blot analysis, and immunocytofluorescence analysis has been described elsewhere 29

U266-LR7 = assay: MTT cell viability assay, myeloma cell line U266-LR7; conditions: read-out: IC50, cell viability
Method: (§2) In vitro studies were carried out using six different human MM cell lines, U266, RPMI8226, MM1S, MM1R, U266-LR7, and RPMI-LR5. For ex vivo assays, human primary cells from healthy donors and MM patients were used (Table 1). Human MM cell lines U266, RPMI8226, and MM1.S were acquired from ATCC and lines U266-LR7, RPMI-LR5, and MM1.R were kindly provided by Dr. Enrique Ocio (Hospital Universitario de Salamanca, Spain). The primary cells were obtained from bone marrow (BM) aspirates or peripheral blood (PB) samples, and the peripheral blood mononuclear cells (PBMCs) were isolated by Ficoll-Hypaque centrifugation and washed twice in phosphate buffered saline (PBS) containing 1% BSA. Hematopoietic stem cells and B and T lymphocytes were isolated from healthy PB donors by positive immunomagnetic separation using human MACS CD34+, CD19+, and CD3+ microbeads, respectively. MM plasma cells were obtained from the bone marrow (BM) of patients with an infiltration of cells of more than 30% (Table 1). The MM plasma cells were identified using CD138+, and were then distinguished from the other cell populations by flow cytometry using a suitable combination of antibodies: anti-human CD64-FITC, CD34-PE, CD56-APC, CD38-APC-H7, and CD45-Pacific Blue antibodies (BD Biosciences, San Jose, Calif.). All the cell lines were cultured in RPMI-1640 supplemented with 10% fetal bovine serum (FBS) and 1% penicillin/streptomycin, as recommended by the supplier. For human primary cells, the concentration of FBS was up to 20%.
as §1

U266 [1] = assay: MTT cell viability assay, myeloma cell line U266; conditions: read-out: IC50, cell viability
Method: as §2, §1

[2] = tested on: lymphocytic T-cells (CD3+) and B-cells (CD19+); assay: Viability of T and B lymphocytes from healthy donors (MTT)
Method: as §2, with “The MM plasma cells were identified using CD138+, and were then distinguished from the other cell populations by flow cytometry using a suitable combination of antibodies: anti-human CD64-FITC, CD34-PE, CD56-APC, CD38-APC-H7, and CD45-Pacific Blue antibodies (BD Biosciences, San Jose, Calif.). All the cell lines were cultured in RPMI-1640 supplemented with 10% fetal bovine serum (FBS) and 1% penicillin/streptomycin, as recommended by the supplier. For human primary cells, the concentration of FBS was up to 20%.” left out
The MM cell lines and primary cells were exposed to different doses of indazole compounds, and viability was evaluated at 18, 48, and 72 hours. […] Cell viability was determined using the MTT assay Cell Counting Kit-8 (Dojindo, Kumamoto, Japan) according to the manufacturer's instructions.

RPMI-LR5 = assay: MTT cell viability assay, myeloma cell line RPMI-LR5; conditions: read-out: IC50, cell viability
Method: as §2, §1

MM1R = assay: MTT cell viability assay, myeloma cell line MM1R; conditions: read-out: IC50, cell viability
Method: as §2, §1

MM1S = assay: MTT cell viability assay, myeloma cell line MM1S; conditions: read-out: IC50, cell viability
Method: as §2, §1

myeloma cell lines = assay: MTT cell viability assay, average over all myeloma cell lines; conditions: read-out: IC50 average
Method: as §2, §1

RPMI8226 = assay: MTT cell viability assay, myeloma cell line RPMI; conditions: read-out: IC50, cell viability
Method: as §2, §1

U266 [3] = assay: Western blot and immunofluorescence in U266 cells; conditions: U266, 50 μM fumonisin B1
Method: The extracts for Western blot were taken after 0, 2, 6, 18, and 24 hours. The cells were lysed according to Gilbert et al., 2002. (J Immunol Methods. 2002, 271:185-201), by adding 2% ASB-14 (Calbiochem, Beeston, United Kingdom) to the isotonic lysis buffer. The protein concentration was determined by Pierce® Microplate BCA Protein Assay kit-Reducing Agent Compatible (Pierce, Rockford, Ill.). The samples were subjected to SDS/PAGE in AnykD precast gels (Bio Rad, Hercules, Calif.) and transferred to PVDF membranes using Trans-Blot® Turbo™ System (Bio-Rad). The membranes were incubated over night at 4° C. with primary antibody in 0.05% Tween 20-Tris buffered saline (TTBS) then with the suitable secondary antibody, and they were subjected to chemiluminescence detection. As a control condition, the cells were treated with DMSO (<0.15%) in RPMI 1640 medium from Gibco (Gaithersburg, Md.).
The antibodies for caspase-2, -8, -9, active caspase-3, -p-Akt (phospho T308), p-Erk (T202+Y204), -p-p38MAPK (phospho T180+Y182), -p-JNK (phospho T183+Y185), -SPT, and the CB1 and CB2 receptors were from Abcam, anti-MCL-1 and -Bcl-xL were from Santa Cruz Biotechnology, anti-PARP was from Cell Signaling Technology, anti-Bax and -Bak were from BD Biosciences. Anti-beta-tubulin was from Sigma-Aldrich. All the horseradish peroxidase (HRP)-conjugated secondary antibodies used were from Jackson ImmunoResearch and produced in a donkey to prevent the possible cross-reactivity when several tests were performed.
The cells treated for 6 hours with indazole compounds were collected and placed on a slide. Immunofluorescence staining was performed as described previously by Vielhaber et al. 2001 (Glycobiology. 2001, 11:451-7) using anti-ceramide as the primary antibody. The ceramide antibody was obtained from Sigma-Aldrich, and the Alexa-488-conjugated secondary antibody was obtained from Abcam. As a control condition, the cells were treated with DMSO (<0.15%) in RPMI 1640 medium from Gibco (Gaithersburg, Md.).

[4] = Homo sapiens, U266-LR7, MTT, 18 hours, doses 0-50 μM
[5] = Homo sapiens, U-266, U266, MTT, 18 hours, doses 0-50 μM
[6] = Homo sapiens, RPMI-LRS, MTT, 18 hours, doses 0-50 μM
[7] = Homo sapiens, MM.1R, MM1R, MTT, 18 hours, doses 0-50 μM
[8] = Homo sapiens, average over the six myeloma cell lines, MTT, 18 hours
[9] = Homo sapiens, RPMI-8226, RPMI, MTT, 18 hours, doses 0-50 μM

Cn1nc(OCc2cccc3ccccc23)c2cc([N+](=O)[O-])ccc21 [PGN-8, 1-methyl-3-(1-naphthylmethoxy)-5-nitroindazole]
effect of preincubation with CB2 antagonist on pro-apoptotic effect induced by WIN-55 (U266 and RPMI cell lines): considerably inhibited | effect of CB2 antagonist on cannabinoid-induced apoptosis (HL60 and KG-1a): significantly inhibiting cannabinoid-induced apoptosis

CCCCCCC(=O)CCCCCC/C=C/C[C@@H](O)[C@H](O)[C@@](N)(CO)C(=O)O [myriocin, Myriocin]
effect on PARP fragmentation and Casp 3 cleavage induced by WIN-55,212-2 (HL60): prevented the fragmentation of PARP and the cleavage of Casp 3

c1ccc2c(COc3nn(CCN4CCCC4)c4ccccc34)cccc2c1 [PGN17]
IC50 (U266-LR7; U266-LR7, MTT, 18 hours, doses 0-50 μM): 51 µM | IC50 (U266 [1]; U266, MTT, 18 hours, doses 0-50 μM): 20.7 µM | viability of the lymphocytes ([2]; healthy donors, doses with antiproliferative effect on MM cell lines): did not affect the viability of the lymphocytes | IC50 (RPMI-LR5; RPMI-LRS, MTT, 18 hours, doses 0-50 μM): 21.7 µM | IC50 (MM1R; MM1R, MTT, 18 hours, doses 0-50 μM): 20.5 µM | IC50 (MM1S; MM1S, MTT, 18 hours, doses 0-50 μM): 44.6 µM | IC50 (myeloma cell lines; average over the six myeloma cell lines, MTT, 18 hours): 29.7 µM | IC50 (RPMI8226; RPMI, MTT, 18 hours, doses 0-50 μM): 19.9 µM

c1ccc2c(COc3nn(CCN4CCCCC4)c4ccccc34)cccc2c1 [PGN6, 3-(1-naphthylmethoxy)-1-(2-piperidinoethyl)indazole]
IC50 (U266-LR7; [4]): 78.2 µM | IC50 (U266 [1]; [5]): 25.4 µM | viability of the lymphocytes [2]: did not affect the viability of the lymphocytes | IC50 (RPMI-LR5; [6]): 13.7 µM | IC50 (MM1R; [7]): 18.6 µM | IC50 (myeloma cell lines; [8]): 29.7 µM | IC50 (RPMI8226; [9]): 14.4 µM

Nc1ccc2c(c1)c(OCc1cccc3ccccc13)nn2CCN1CCCCC1 [PGN72, 5-amino-3-(1-naphthylmethoxy)-1-(2-piperidinoethyl)indazole]
IC50 (U266-LR7; [4]): 20.6 µM | IC50 (U266 [1]; [5]): 21.2 µM | IC50 (RPMI-LR5; [6]): 41.4 µM | IC50 (MM1R; [7]): 26.7 µM | IC50 (MM1S; Homo sapiens, MM1.S, MM1S, MTT, 18 hours, doses 0-50 μM): 24.8 µM | IC50 (myeloma cell lines; [8]): 25.7 µM | IC50 (RPMI8226; [9]): 19.6 µM

CCCC[C@@H](C)[C@@H](OC(=O)C[C@@H](CC(=O)O)C(=O)O)[C@H](C[C@@H](C)C[C@H](O)CCCC[C@@H](O)C[C@H](O)[C@H](C)N)OC(=O)C[C@@H](CC(=O)O)C(=O)O [FB1, Fumonisin B1]
effect of inhibitor on WIN-55-induced apoptosis / loss of viability (U266 and RPMI cell lines): significantly reverses the effect | effect on PARP fragmentation induced by WIN-55 (U266 [3]): considerably prevented the PARP fragmentation | effect of inhibitor on cannabinoid-induced loss of viability (HL60 and KG-1a): only partially prevented

O=[N+]([O-])c1ccc2[nH]nc(OCc3cccc4ccccc34)c2c1 [PGN-70, 3-(1-naphthylmethoxy)-5-nitro-1H-indazole]
effect of preincubation with CB2 antagonist on pro-apoptotic effect induced by WIN-55 (U266 and RPMI cell lines): considerably inhibited | effect of CB2 antagonist on cannabinoid-induced apoptosis (HL60 and KG-1a): significantly inhibiting cannabinoid-induced apoptosis

Nc1ccc2c(c1)c(OCc1ccc3ccccc3c1)nn2CCN1CCCCC1 [PGN34, 5-amino-3-(2-naphthylmethoxy)-1-(2-piperidinoethyl)indazole]
IC50 (U266-LR7; Homo sapiens, 18 h): 17.8 µM | IC50 (U266 [1]; Homo sapiens, U-266, 18 h): 26.9 µM | IC50 (RPMI-LR5; Homo sapiens, 18 h): 23.2 µM | IC50 (MM1R; Homo sapiens, MM.1R, 18 h): 21 µM | IC50 (MM1S; Homo sapiens, MM1.S, 18 h): 17.1 µM | IC50 (myeloma cell lines; Homo sapiens, 18 h): 20.2 µM | IC50 (RPMI8226; Homo sapiens, RPMI-8226, 18 h): 15.4 µM

COC(=O)C[C@H](NC(=O)[C@H](C)NC(=O)[C@@H](NC(=O)OCc1ccccc1)C(C)C)C(=O)CF [Z-VAD-FMK] (Cbz-Val-Ala-Asp(OMe)-CH2F)
effect of inhibitor on WIN-55-induced apoptosis / loss of viability (U266 and RPMI cell lines): prevented the apoptosis | effect of inhibitor on cannabinoid-induced loss of viability (HL60 and KG-1a): abolished

COc1ccc(COc2n[nH]c3ccc([N+](=O)[O-])cc23)cc1 [PGN-37, 3-(4-methoxybenzyloxy)-5-nitro-1H-indazole]
effect of preincubation with CB2 antagonist on pro-apoptotic effect induced by WIN-55 (U266 and RPMI cell lines): considerably inhibited | effect of CB2 antagonist on cannabinoid-induced apoptosis (HL60 and KG-1a): significantly inhibiting cannabinoid-induced apoptosis
